The values that follow come from patent US20250170248A1, “SMARCA DEGRADERS AND USES THEREOF” (Kymera Therapeutics, Inc., priority 2021, published 2025).

Where only a bound is given, the exact number is not on record here.

Assay type in all cases: cell-based
Test [1] concerns the target T1, SMARCA2 (Homo sapiens, UniProt P51531). The test is described as follows: SMARCA2 Western blot degradation in MV4-11 cells. The following applies: for Dmax: MV4-11, MV4-11 cells, read-out: SMARCA2 MSD MV411 degradation 24 h: average Dmax %; for Dmax / DC50 / SMARCA2 MSD MV411 degradation 24 h: average Dmax %: 24 h; for DC50 / Selectivity in MV411 / SMARCA2 MSD MV411 degradation 24 h: average Dmax %: MV4-11 cells; for DC50: read-out: SMARCA2 MSD MV411 degradation 24 h: Mean external-Abs DC50; for Selectivity in MV411: SMARCA2/4 selectivity. Also on record: SMARCA2/SMARCA4 protein degradation selectivity in MV4-11 cells; endogenous in cells; host or cells: MV4-11. A general note: In western blotting, separated proteins are transferred to a membrane and probed.

The target in test [2] is T1, SMARCA2. The test is described as follows: MSD SMARCA2 degradation in A549 cell line. The following applies: for Dmax: A549, A549 cells; for Dmax / DC50: 24 h; for DC50 / SMARCA2 MSD A549 degradation 24 h: Average Dmax %: A549 cells; for DC50: read-out: SMARCA2 MSD A549 degradation 24 h: Average external-Abs DC50. The procedure, abridged:
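A549 cells treated 24 h with compound, 3-fold series from 1000 nM. Lysates captured on MSD plates and SMARCA2 quantified with anti-SMARCA2 and SULFO-TAG secondary antibodies (electrochemiluminescence). DC50 and Dmax (% degradation at 24 h) reported as letter bins.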

The target in test [3] is T2, SMARCA4 (Homo sapiens, UniProt P51532).
T2 construct: SMARCA2/SMARCA4 protein degradation selectivity in MV4-11 cells; endogenous in cells; host or cells: MV4-11
T2 sequence (P51532 whole entry): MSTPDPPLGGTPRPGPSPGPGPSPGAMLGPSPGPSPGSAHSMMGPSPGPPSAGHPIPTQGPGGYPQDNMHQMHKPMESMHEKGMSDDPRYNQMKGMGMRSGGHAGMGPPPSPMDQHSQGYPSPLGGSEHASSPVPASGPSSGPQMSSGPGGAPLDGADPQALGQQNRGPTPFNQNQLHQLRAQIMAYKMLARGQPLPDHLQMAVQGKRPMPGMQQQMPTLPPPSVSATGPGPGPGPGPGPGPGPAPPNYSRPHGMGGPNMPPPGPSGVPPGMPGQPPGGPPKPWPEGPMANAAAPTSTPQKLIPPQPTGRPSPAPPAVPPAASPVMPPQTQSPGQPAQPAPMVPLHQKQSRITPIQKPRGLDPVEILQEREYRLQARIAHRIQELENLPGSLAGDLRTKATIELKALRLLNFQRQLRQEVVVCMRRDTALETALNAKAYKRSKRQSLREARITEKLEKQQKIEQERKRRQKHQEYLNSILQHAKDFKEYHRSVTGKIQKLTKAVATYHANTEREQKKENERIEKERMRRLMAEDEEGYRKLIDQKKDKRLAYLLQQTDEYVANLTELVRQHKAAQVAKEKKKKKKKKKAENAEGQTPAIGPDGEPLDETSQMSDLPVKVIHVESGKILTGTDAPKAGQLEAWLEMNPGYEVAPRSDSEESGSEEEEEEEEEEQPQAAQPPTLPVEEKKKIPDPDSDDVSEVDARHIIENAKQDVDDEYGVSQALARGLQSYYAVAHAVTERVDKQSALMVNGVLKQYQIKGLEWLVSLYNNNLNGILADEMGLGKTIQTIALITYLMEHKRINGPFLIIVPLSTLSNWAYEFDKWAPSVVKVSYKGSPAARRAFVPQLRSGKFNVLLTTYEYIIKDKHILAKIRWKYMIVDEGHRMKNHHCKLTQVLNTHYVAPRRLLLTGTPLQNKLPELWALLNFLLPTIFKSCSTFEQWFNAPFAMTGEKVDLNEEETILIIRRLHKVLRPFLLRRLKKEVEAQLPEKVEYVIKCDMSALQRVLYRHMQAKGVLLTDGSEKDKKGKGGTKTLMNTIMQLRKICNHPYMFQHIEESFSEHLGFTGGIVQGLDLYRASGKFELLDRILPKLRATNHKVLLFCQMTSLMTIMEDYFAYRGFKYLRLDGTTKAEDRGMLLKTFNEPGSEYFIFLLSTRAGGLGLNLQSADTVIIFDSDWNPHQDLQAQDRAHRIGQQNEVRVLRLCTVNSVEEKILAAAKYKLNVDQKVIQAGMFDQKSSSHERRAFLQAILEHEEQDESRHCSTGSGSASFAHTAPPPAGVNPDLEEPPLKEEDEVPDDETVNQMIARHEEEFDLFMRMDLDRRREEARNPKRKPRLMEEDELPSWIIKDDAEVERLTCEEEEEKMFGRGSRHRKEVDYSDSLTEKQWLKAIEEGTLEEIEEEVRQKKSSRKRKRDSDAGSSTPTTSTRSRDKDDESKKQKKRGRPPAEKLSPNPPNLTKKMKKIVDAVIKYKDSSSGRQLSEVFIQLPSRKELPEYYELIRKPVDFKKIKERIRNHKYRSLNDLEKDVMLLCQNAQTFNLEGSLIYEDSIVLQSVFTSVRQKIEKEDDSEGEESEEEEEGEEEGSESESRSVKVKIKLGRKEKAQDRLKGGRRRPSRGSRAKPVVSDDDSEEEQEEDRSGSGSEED
The test is described as follows: SMARCA4 Western blot degradation in MV4-11 cells. The note with it: for Dmax: MV4-11, MV4-11 cells, read-out: SMARCA4 MSD MV411 degradation 24 h: average Dmax %; for Dmax / DC50: 24 h; for DC50: read-out: SMARCA4 MSD MV411 degradation 24 h: Mean external-Abs DC50. The essentials:
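MV4-11 cells (4×10^6/well) treated with compound for 24 h, lysed in RIPA with protease/phosphatase inhibitors, and SMARCA2, SMARCA4 and beta-actin detected by Western blot with LI-COR readout. Values reported as letter-coded DC50, 24 h Dmax % and SMARCA2/4 selectivity fold.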

T1 sequence (P51531 whole entry): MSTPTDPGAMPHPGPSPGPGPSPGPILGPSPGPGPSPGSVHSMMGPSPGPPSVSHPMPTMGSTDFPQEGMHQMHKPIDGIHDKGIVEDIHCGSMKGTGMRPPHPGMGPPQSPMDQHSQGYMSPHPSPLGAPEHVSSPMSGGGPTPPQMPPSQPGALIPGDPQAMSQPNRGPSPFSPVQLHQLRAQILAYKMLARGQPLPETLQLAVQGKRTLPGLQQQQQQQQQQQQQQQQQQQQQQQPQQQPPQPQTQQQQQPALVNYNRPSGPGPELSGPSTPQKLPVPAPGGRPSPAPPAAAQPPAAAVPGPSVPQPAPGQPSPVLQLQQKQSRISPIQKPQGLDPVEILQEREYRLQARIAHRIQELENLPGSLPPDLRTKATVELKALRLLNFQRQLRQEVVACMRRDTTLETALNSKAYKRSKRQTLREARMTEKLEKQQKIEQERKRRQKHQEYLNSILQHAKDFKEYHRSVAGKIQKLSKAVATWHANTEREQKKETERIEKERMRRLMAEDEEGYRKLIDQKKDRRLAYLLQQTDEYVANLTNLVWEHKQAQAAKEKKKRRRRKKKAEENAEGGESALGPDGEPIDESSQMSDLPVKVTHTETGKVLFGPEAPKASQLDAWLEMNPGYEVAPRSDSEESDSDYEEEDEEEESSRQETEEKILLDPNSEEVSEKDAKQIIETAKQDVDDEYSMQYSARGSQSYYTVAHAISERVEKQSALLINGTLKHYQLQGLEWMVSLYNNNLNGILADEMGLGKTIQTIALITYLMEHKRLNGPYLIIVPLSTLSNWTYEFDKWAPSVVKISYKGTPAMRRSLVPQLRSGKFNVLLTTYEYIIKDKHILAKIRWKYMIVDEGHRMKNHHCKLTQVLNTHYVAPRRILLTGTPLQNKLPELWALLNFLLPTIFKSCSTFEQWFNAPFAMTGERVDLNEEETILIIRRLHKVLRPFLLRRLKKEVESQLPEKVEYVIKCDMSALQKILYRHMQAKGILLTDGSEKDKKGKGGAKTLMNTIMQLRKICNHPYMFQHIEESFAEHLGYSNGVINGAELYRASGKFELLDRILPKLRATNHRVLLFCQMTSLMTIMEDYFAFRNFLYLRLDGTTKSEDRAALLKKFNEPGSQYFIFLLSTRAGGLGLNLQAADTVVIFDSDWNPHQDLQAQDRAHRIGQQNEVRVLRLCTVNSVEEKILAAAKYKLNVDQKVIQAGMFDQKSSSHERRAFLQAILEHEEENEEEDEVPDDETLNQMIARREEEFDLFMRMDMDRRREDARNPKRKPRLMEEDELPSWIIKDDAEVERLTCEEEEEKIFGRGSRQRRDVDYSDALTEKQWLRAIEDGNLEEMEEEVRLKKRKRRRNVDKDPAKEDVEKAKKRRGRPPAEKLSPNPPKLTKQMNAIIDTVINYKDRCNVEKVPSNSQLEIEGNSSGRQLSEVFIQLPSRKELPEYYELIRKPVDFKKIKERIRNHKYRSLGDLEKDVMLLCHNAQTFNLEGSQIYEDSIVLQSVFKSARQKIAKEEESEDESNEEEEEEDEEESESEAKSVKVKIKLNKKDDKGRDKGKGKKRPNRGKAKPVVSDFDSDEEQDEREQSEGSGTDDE

As usually defined, the Dmax is the largest share of the target that was removed. As usually defined, the DC50 is the concentration at which degradation of the target reaches its halfway point. As for `Cc1ncsc1-c1ccc(CNC(=O)[C@@H]2C[C@@H](O)CN2C(=O)[C@@H](NC(=O)N2CC3(CC(N4CCC(c5cnc(N6CCc7[nH]c8nnc(-c9ccccc9O)cc8c7[C@H]6C)nc5)CC4)C3)C2)C(C)(C)C)cc1` [I-58, N—((S)-1-((2S,4R)-4-hydroxy-2-((4-(4-methylthiazol-5-yl)benzyl)carbamoyl)pyrrolidin-1-yl)-3,3-dimethyl-1l-oxobutan-2-yl)-6-(4-(2-((R)-3-(2-hydroxyphenyl)-5-methyl-7,8-dihydro-5H-pyrido [3′, 4′: 4,5]pyrrolo [2,3-c]pyridazin-6(9H)-yl)pyrimidin-5-yl)piperidin-1-yl)-2-azaspiro[3.3]heptane-2-carboxamide], the Dmax in test [1] is 70 to 90%; in test [2] it was over 90%; in test [3], 50 to 70%. The values for the DC50 in test [1], in test [2] and in test [3] (MV4-11 cells) were 1 to 10 nM, 10 to 50 nM and over 100 nM, respectively. In addition, in test [1], the “Selectivity in MV411” value is “B (B (>100-500 fold))”.

As to `C#Cc1ccc(CNC(=O)[C@@H]2C[C@@H](O)CN2C(=O)[C@@H](NC(=O)C2CCN(C[C@H]3CC[C@@H](N4CCc5[nH]c6nnc(-c7ccccc7O)cc6c5[C@H]4C)CC3)CC2)C(C)(C)C)cc1` (single isomer, unassigned) [I-201], the Dmax in test [1] is 70 to 90%; in test [2] it was over 90%; in test [3], 50 to 70%. Further, the DC50 in test [1] was 1 to 10 nM; in test [2], over 100 nM; in test [3] (MV4-11 cells), over 100 nM. For the same compound, in test [1], the “Selectivity in MV411” value is “C (C (10-100 fold))”.

Take `C#Cc1ccc(CNC(=O)[C@@H]2C[C@@H](O)CN2C(=O)[C@@H](NC(=O)[C@H]2CC3(C2)C[C@H](N2CCC(N4CCC(N5CCN6c7cc(-c8ccccc8O)nnc7NC[C@H]6C5)CC4)CC2)C3)C(C)(C)CCO)cc1` (single isomer, unassigned) [I-364]: the results for the maximal degradation (Dmax) in test [1], in test [2] and in test [3] were 50 to 70%, 70 to 90% and under 50%, respectively. Further, the values for the DC50 in test [1], in test [2] and in test [3] (MV4-11 cells) were 10 to 100 nM, over 100 nM and over 100 nM, respectively. In addition, in test [1], the “Selectivity in MV411” value is reported as “B (B (>100-500 fold))”.

As to `C#Cc1ccc(CNC(=O)[C@@H]2C[C@@H](O)CN2C(=O)[C@@H](NC(=O)[C@H]2CCC3(CC2)C[C@H](N2CCN(c4cnc(N5CCN6c7cc(-c8ccccc8O)nnc7NC[C@H]6C5)nc4)CC2)C3)C(C)(C)CCO)cc1` (single isomer, unassigned) [I-287], the Dmax in test [1] was 70 to 90%; in test [2], over 90%; in test [3], 50 to 70%. The DC50 in test [1] is 1 to 10 nM; in test [2] it was under 10 nM; in test [3] (MV4-11 cells), over 100 nM. Also, the “Selectivity in MV411” value in test [1] is listed as “A (A (>500 fold))”.

In the case of `Cc1ncsc1-c1ccc(CNC(=O)[C@@H]2C[C@@H](O)CN2C(=O)[C@@H](NC(=O)[C@H]2CC3(C2)C[C@H](N2CCN(c4cnc(N5CCN6c7cc(-c8ccccc8O)nnc7NC[C@H]6C5)nc4)CC2)C3)C(C)(C)C)cc1` (some centres unmarked) [I-18], in test [1], the “SMARCA2 MSD MV411 degradation 24 h: average Dmax %” value is “D (D (<50% degradation))”, the DC50 is 10 to 100 nM and the “Selectivity in MV411” value is listed as “C (C (10-100 fold))”. In test [2], the “SMARCA2 MSD A549 degradation 24 h: Average Dmax %” value is given as “D (D (<50% degradation))”. Also, in test [3], the Dmax was under 50%. Further, the DC50 in test [3] (MV4-11 cells) was 10 to 100 nM.

Consider `C#Cc1ccc(CNC(=O)[C@@H]2C[C@@H](O)CN2C(=O)[C@@H](NC(=O)C2CCC3(CC2)CC(N2CCC(N4CC(C(=O)N5CCN6c7cc(-c8ccccc8O)nnc7NC[C@H]6C5)C4)CC2)C3)C(C)(C)C)cc1` (some centres unmarked) [I-92], for which the greatest degradation seen (Dmax) in test [1] is 70 to 90%; in test [2], over 90%; in test [3] it was 50 to 70%. Moreover, the DC50 in test [1] was 1 to 10 nM; in test [2], over 100 nM; in test [3] (MV4-11 cells) it was over 100 nM. Moreover, the “Selectivity in MV411” value in test [1] is “C (C (10-100 fold))”.

For `C#Cc1ccc(CNC(=O)[C@@H]2C[C@@H](O)CN2C(=O)[C@@H](NC(=O)C2CCC3(CC2)CC(N2CCC(N4CCC(C(=O)N5CCN6c7cc(-c8ccccc8O)nnc7NC[C@H]6C5)CC4)CC2)C3)C(C)(C)C)cc1` (some centres unmarked) [I-89], the Dmax in test [1] was 70 to 90%; in test [2] it was over 90%; in test [3], under 50%. Besides, the DC50 in test [1] is 1 to 10 nM; in test [2], over 100 nM; in test [3] (MV4-11 cells) it was over 100 nM. In addition, the “Selectivity in MV411” value in test [1] is listed as “A (A (>500 fold))”.

For `Cn1nccc1-c1ccc(CNC(=O)[C@@H]2C[C@@H](O)CN2C(=O)[C@@H](NC(=O)[C@H]2CC[C@@H](c3ccc(-c4cnc(N5CCN6c7cc(-c8ccccc8O)nnc7NC[C@H]6C5)nc4)cc3)CC2)C(C)(C)C)cc1` (single isomer, unassigned) [I-88], the Dmax in test [1], in test [2] and in test [3] was over 90% throughout. Also, the DC50 in test [1] is under 1 nM; in test [2], under 10 nM; in test [3] (MV4-11 cells), 1 to 10 nM. In addition, the “Selectivity in MV411” value in test [1] is on record as “C (C (10-100 fold))”.

Take `C#Cc1ccc(CNC(=O)[C@@H]2C[C@@H](O)CN2C(=O)[C@@H](NC(=O)C2CCN(CC3CCC(N4CCC(N5CCc6[nH]c7nnc(-c8ccccc8O)cc7c6[C@H]5C)CC4)CC3)CC2)C(C)(C)C)cc1` (some centres unmarked) [I-197]: the Dmax in test [1] was under 50%; in test [2] it was 70 to 90%; in test [3], under 50%. Moreover, the half-maximal degradation concentration (DC50) in test [1], in test [2] and in test [3] (MV4-11 cells) was over 100 nM throughout. Besides, in test [1], the “Selectivity in MV411” value is on record as “C (C (10-100 fold))”.

Turning to `C#Cc1ccc(CNC(=O)[C@@H]2C[C@@H](O)CN2C(=O)[C@@H](NC(=O)N2CC3(CC(N4CCC(c5cnc(N6CCc7[nH]c8nnc(-c9ccccc9O)cc8c7[C@H]6C)nc5)CC4)C3)C2)C(C)(C)C)c(OCC(=O)O)c1` [I-144], the Dmax was 70 to 90% in test [1], over 90% in test [2] and 70 to 90% in test [3]. For the same compound, the DC50 is 1 to 10 nM in test [1], 10 to 50 nM in test [2] and over 100 nM in test [3] (MV4-11 cells). In addition, in test [1], the “Selectivity in MV411” value is “C (C (10-100 fold))”.

Regarding `C#Cc1ccc(CNC(=O)[C@@H]2C[C@@H](O)CN2C(=O)[C@@H](NC(=O)[C@H]2CCC3(CC2)C[C@H](N2CCC(c4cnc(N5CCN6c7cc(-c8ccccc8O)nnc7NC[C@H]6C5)nc4)CC2)C3)C(C)(C)C)c(Cl)c1` (single isomer, unassigned) [I-99], in test [1], the “SMARCA2 MSD MV411 degradation 24 h: average Dmax %” value was “B (B (>70-90% degradation))”, the 50% degradation concentration (DC50) lay in the range of 1 to 10 nM and the “Selectivity in MV411” value is on record as “B (B (>100-500 fold))”. Moreover, in test [2], the “SMARCA2 MSD A549 degradation 24 h: Average Dmax %” value was “A (A (>90% degradation))” and the DC50 was under 10 nM. In addition, in test [3] (MV4-11 cells), the “SMARCA4 MSD MV411 degradation 24 h: average Dmax %” value is “C (C (50-70% degradation))” and the 50% degradation concentration (DC50) was over 100 nM.

On to `C#Cc1ccc([C@@H](CO)NC(=O)[C@@H]2C[C@@H](O)CN2C(=O)[C@@H](NC(=O)N2CC3(CC(N4CCC(c5cnc(N6CCc7[nH]c8nnc(-c9ccccc9O)cc8c7[C@H]6C)nc5)CC4)C3)C2)C(C)(C)C)nc1` [I-305], for which the results for the Dmax in test [1], in test [2] and in test [3] were 50 to 70%, 50 to 70% and under 50%, respectively. Further, the DC50 in test [1], in test [2] and in test [3] (MV4-11 cells) was over 100 nM throughout. Also, the “Selectivity in MV411” value in test [1] is reported as “D (D (<10 fold))”.
